Target: T1, GCN2 (Homo sapiens, UniProt Q9P2K8)
Assay: TR-FRET assay for inhibition of GCN2 (Example 107, for Examples 40-72)

T1 sequence (Q9P2K8 whole entry): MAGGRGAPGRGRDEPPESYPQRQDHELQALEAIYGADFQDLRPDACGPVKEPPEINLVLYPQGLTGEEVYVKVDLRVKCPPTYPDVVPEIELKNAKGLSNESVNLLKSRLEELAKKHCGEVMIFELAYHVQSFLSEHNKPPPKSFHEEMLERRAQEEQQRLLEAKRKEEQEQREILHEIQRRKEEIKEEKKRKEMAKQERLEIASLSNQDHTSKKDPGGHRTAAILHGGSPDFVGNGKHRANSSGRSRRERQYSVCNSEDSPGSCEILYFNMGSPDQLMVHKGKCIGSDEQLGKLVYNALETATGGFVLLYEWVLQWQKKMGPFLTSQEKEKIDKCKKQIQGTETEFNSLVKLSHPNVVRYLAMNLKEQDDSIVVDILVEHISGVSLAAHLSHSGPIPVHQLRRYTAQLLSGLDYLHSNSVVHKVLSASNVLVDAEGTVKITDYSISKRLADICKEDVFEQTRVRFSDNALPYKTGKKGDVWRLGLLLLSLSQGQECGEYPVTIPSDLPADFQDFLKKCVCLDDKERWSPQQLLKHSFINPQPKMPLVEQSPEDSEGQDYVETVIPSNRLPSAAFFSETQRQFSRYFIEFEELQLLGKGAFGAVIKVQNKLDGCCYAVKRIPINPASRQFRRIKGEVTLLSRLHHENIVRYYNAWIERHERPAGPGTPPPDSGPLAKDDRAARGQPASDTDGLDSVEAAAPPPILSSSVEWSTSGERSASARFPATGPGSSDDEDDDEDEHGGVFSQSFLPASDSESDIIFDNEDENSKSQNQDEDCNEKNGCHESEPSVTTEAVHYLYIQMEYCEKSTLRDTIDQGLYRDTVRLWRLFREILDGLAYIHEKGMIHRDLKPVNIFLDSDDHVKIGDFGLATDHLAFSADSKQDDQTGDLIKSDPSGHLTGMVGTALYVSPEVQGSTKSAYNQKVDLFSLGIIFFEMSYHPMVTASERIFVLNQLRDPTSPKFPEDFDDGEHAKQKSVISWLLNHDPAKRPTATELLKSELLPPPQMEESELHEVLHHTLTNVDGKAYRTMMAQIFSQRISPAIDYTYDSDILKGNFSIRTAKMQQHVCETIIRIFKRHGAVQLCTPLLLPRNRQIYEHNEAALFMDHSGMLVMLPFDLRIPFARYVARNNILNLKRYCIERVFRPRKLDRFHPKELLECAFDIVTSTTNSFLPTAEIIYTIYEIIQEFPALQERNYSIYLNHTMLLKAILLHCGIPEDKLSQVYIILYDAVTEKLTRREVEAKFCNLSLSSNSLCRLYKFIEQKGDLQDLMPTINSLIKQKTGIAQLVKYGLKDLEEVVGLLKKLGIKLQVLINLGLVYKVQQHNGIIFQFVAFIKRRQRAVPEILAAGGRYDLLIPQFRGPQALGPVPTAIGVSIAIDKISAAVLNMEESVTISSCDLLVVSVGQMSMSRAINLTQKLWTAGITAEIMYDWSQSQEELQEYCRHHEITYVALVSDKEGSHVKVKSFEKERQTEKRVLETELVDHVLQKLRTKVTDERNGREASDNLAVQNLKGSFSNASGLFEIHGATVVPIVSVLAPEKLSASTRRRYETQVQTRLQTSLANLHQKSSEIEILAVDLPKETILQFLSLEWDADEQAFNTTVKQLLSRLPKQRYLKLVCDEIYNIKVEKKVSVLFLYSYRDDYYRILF

IC50 [nM]	SMILES
< 500	COc1ncc(Cl)cc1S(=O)(=O)Nc1ccc(F)c(-c2ccc3c(C(=O)NC(C)CCO)n[nH]c3c2F)c1F (stereo not drawn) [Example 60, 6-[3-(5-chloro-2-methoxypyridine-3-sulfonamido)-2,6-difluorophenyl]-7-fluoro-N-(4-hydroxybutan-2-yl)-1H-indazole-3-carboxamide]
< 500	COc1ncc(Cl)cc1S(=O)(=O)Nc1ccc(F)c(-c2ccc3c(C(=O)NCC(C)O)n[nH]c3c2F)c1F (stereo not drawn) [Example 52, 6-[3-(5-Chloro-2-methoxypyridine-3-sulfonamido)-2,6-difluorophenyl]-7-fluoro-N-(2-hydroxypropyl)-1H-indazole-3-carboxamide]
< 500	CCCC(C)NC(=O)c1n[nH]c2c(F)c(-c3c(F)ccc(NS(=O)(=O)c4cc(Cl)cnc4OC)c3F)ccc12 (stereo not drawn) [Example 59, 6-[3-(5-Chloro-2-methoxypyridine-3-sulfonamido)-2,6-difluorophenyl]-7-fluoro-N-(pentan-2-yl)-1H-indazole-3-carboxamide]
< 500	CNC(=O)c1n[nH]c2c(F)c(-c3c(F)ccc(NS(=O)(=O)c4cc(C#N)cnc4OC(F)F)c3F)ccc12 [Example 46, 6-[3-[5-Cyano-2-(difluoromethoxy)pyridine-3-sulfonamido]-2,6-difluorophenyl]-7-fluoro-N-methyl-1H-indazole-3-carboxamide]
< 500	CNC(=O)c1n[nH]c2c(F)c(-c3c(F)ccc(NS(=O)(=O)c4cc(Cl)cnc4OC(F)F)c3F)ccc12 [Example 45, 6-[3-[5-chloro-2-(difluoromethoxy)pyridine-3-sulfonamido]-2,6-difluorophenyl]-7-fluoro-N-methyl-1H-indazole-3-carboxamide]
< 500	CNC(=O)c1n[nH]c2c(F)c(-c3c(F)ccc(NS(=O)(=O)c4cc(F)cc(CO)c4)c3F)ccc12 [Example 42, 6-[2,6-difluoro-3-[3-fluoro-5-(hydroxymethyl)benzenesulfonamido]phenyl]-7-fluoro-N-methyl-1H-indazole-3-carboxamide]

Target: T1, GCN2
Assay: TR-FRET biochemical assay for inhibition of GCN2 (Example 108, for Examples 73-105)

IC50 [nM]	SMILES
< 500	COc1ncc(Cl)cc1S(=O)(=O)Nc1ccc(F)c(-c2ccc3c(C(=O)NC4CC4)n[nH]c3c2F)c1F [Example 81, 6-[3-(5-Chloro-2-methoxypyridine-3-sulfonamido)-2,6-difluorophenyl]-N-cyclopropyl-7-fluoro-1H-indazole-3-carboxamide]
2500 to 10000	CNC(=O)c1n[nH]c2c(F)c(-c3c(F)ccc(NS(=O)(=O)C4CCOCC4)c3F)ccc12 [Example 75, 6-[2,6-difluoro-3-(oxane-4-sulfonamido)phenyl]-7-fluoro-N-methyl-1H-indazole-3-carboxamide]
< 500	COc1ncc(Cl)cc1S(=O)(=O)Nc1ccc(F)c(-c2ccc3c(C(=O)NCC4CCCNC4)n[nH]c3c2F)c1F (stereo not drawn) [Example 93, 6-[3-(5-Chloro-2-methoxypyridine-3-sulfonamido)-2,6-difluorophenyl]-7-fluoro-N-(piperidin-3-ylmethyl)-1H-indazole-3-carboxamide]
< 500	COc1ncc(Cl)cc1S(=O)(=O)Nc1ccc(F)c(-c2ccc3c(C(=O)NC4CCCC(O)C4)n[nH]c3c2F)c1F (stereo not drawn) [Example 80, 6-[3-(5-Chloro-2-methoxypyridine-3-sulfonamido)-2,6-difluorophenyl]-7-fluoro-N-(3-hydroxycyclohexyl)-1H-indazole-3-carboxamide]
< 500	COc1ncc(Cl)cc1S(=O)(=O)Nc1ccc(F)c(-c2ccc3c(C(=O)NCCN4CCCC4)n[nH]c3c2F)c1F [Example 83, 6-[3-(5-chloro-2-methoxypyridine-3-sulfonamido)-2,6-difluorophenyl]-7-fluoro-N-[2-(pyrrolidin-1-yl)ethyl]-1H-indazole-3-carboxamide]
< 500	C#CC(C)(C)NC(=O)c1n[nH]c2c(F)c(-c3c(F)ccc(NS(=O)(=O)c4cc(Cl)cnc4OC)c3F)ccc12 [Example 89, 6-[3-(5-Chloro-2-methoxypyridine-3-sulfonamido)-2,6-difluorophenyl]-7-fluoro-N-(2-methylbut-3-yn-2-yl)-1H-indazole-3-carboxamide]
< 500	COc1ncc(Cl)cc1S(=O)(=O)Nc1ccc(F)c(-c2ccc3c(C(=O)NCCN4CCCC4=O)n[nH]c3c2F)c1F [Example 99, 6-[3-(5-Chloro-2-methoxypyridine-3-sulfonamido)-2,6-difluorophenyl]-7-fluoro-N-[2-(2-oxopyrrolidin-1-yl)ethyl]-1H-indazole-3-carboxamide]
< 500	COc1ncc(Cl)cc1S(=O)(=O)Nc1ccc(F)c(-c2ccc3c(C(=O)NCC4CC4)n[nH]c3c2F)c1F [Example 85, 6-[3-(5-Chloro-2-methoxypyridine-3-sulfonamido)-2,6-difluorophenyl]-N-(cyclopropylmethyl)-7-fluoro-1H-indazole-3-carboxamide]
2500 to 10000	CNC(=O)c1n[nH]c2c(F)c(-c3c(F)ccc(NS(=O)(=O)CC4CCC(O)C4)c3F)ccc12 (mixture of isomers) [Example 78, 6-[2,6-difluoro-3-[(3-hydroxycyclopentyl)methanesulfonamido]phenyl]-7-fluoro-N-methyl-1H-indazole-3-carboxamide]
< 500	COc1ncc(Cl)cc1S(=O)(=O)Nc1ccc(F)c(-c2ccc3c(C(=O)NC4CCCC4O)n[nH]c3c2F)c1F (stereo not drawn) [Example 87, 6-[3-(5-Chloro-2-methoxypyridine-3-sulfonamido)-2,6-difluorophenyl]-7-fluoro-N-(2-hydroxycyclopentyl)-1H-indazole-3-carboxamide]
< 500	C#CCNC(=O)c1n[nH]c2c(F)c(-c3c(F)ccc(NS(=O)(=O)c4cc(Cl)cnc4OC)c3F)ccc12 [Example 92, 6-[3-(5-Chloro-2-methoxypyridine-3-sulfonamido)-2,6-difluorophenyl]-7-fluoro-N-(prop-2-yn-1-yl)-1H-indazole-3-carboxamide]
500 to 2500	COc1ncc(Cl)cc1S(=O)(=O)Nc1ccc(F)c(-c2ccc3c(C(=O)NC4CCCCC4N)n[nH]c3c2F)c1F (stereo not drawn) [Example 94, N-(2-Aminocyclohexyl)-6-[3-(5-chloro-2-methoxypyridine-3-sulfonamido)-2,6-difluorophenyl]-7-fluoro-1H-indazole-3-carboxamide]
< 500	COc1ncc(Cl)cc1S(=O)(=O)Nc1ccc(F)c(-c2ccc3c(C(=O)NC4CCCCC4O)n[nH]c3c2F)c1F (stereo not drawn) [Example 88, 6-[3-(5-Chloro-2-methoxypyridine-3-sulfonamido)-2,6-difluorophenyl]-7-fluoro-N-(2-hydroxycyclohexyl)-1H-indazole-3-carboxamide]
< 500	COc1ncc(Cl)cc1S(=O)(=O)Nc1ccc(F)c(-c2ccc3c(C(=O)NC(C#N)C4CC4)n[nH]c3c2F)c1F (stereo not drawn) [Example 91, 6-[3-(5-Chloro-2-methoxypyridine-3-sulfonamido)-2,6-difluorophenyl]-N-[cyano(cyclopropyl)methyl]-7-fluoro-1H-indazole-3-carboxamide]
2500 to 10000	CNC(=O)c1n[nH]c2c(F)c(-c3c(F)ccc(NS(=O)(=O)CC4CCCC4)c3F)ccc12 [Example 74, 6-[3-(cyclopentylmethanesulfonamido)-2,6-difluorophenyl]-7-fluoro-N-methyl-1H-indazole-3-carboxamide]
< 500	COc1ncc(Cl)cc1S(=O)(=O)Nc1ccc(F)c(-c2ccc3c(C(=O)NC4CCC(=O)CC4)n[nH]c3c2F)c1F [Example 96, 6-[3-(5-Chloro-2-methoxypyridine-3-sulfonamido)-2,6-difluorophenyl]-7-fluoro-N-(4-oxocyclohexyl)-1H-indazole-3-carboxamide]
< 500	COc1ncc(Cl)cc1S(=O)(=O)Nc1ccc(F)c(-c2ccc3c(C(=O)NCC4CCN(C)C4)n[nH]c3c2F)c1F (stereo not drawn) [Example 100, 6-[3-(5-Chloro-2-methoxypyridine-3-sulfonamido)-2,6-difluorophenyl]-7-fluoro-N-[(1-methylpyrrolidin-3-yl)methyl]-1H-indazole-3-carboxamide]
< 500	COc1ncc(Cl)cc1S(=O)(=O)Nc1ccc(F)c(-c2ccc3c(C(=O)NC(C)CN)n[nH]c3c2F)c1F (stereo not drawn) [Example 95, N-(1-Aminopropan-2-yl)-6-[3-(5-chloro-2-methoxypyridine-3-sulfonamido)-2,6-difluorophenyl]-7-fluoro-1H-indazole-3-carboxamide]
< 500	COc1ncc(Cl)cc1S(=O)(=O)Nc1ccc(F)c(-c2ccc3c(C(=O)NC4CCCC(N)C4)n[nH]c3c2F)c1F (stereo not drawn) [Example 98, N-(3-Aminocyclohexyl)-6-[3-(5-chloro-2-methoxypyridine-3-sulfonamido)-2,6-difluorophenyl]-7-fluoro-1H-indazole-3-carboxamide]
< 500	COc1ncc(Cl)cc1S(=O)(=O)Nc1ccc(F)c(-c2ccc3c(C(=O)NCC4CCOCC4)n[nH]c3c2F)c1F [Example 82]
< 500	COc1ncc(Cl)cc1S(=O)(=O)Nc1ccc(F)c(-c2ccc3c(C(=O)NCC(F)(F)F)n[nH]c3c2F)c1F [Example 90, 6-[3-(5-Chloro-2-methoxypyridine-3-sulfonamido)-2,6-difluorophenyl]-7-fluoro-N-(2,2,2-trifluoroethyl)-1H-indazole-3-carboxamide]
< 500	COc1ncc(Cl)cc1S(=O)(=O)Nc1ccc(F)c(-c2ccc3c(C(=O)NCCS(C)(=O)=O)n[nH]c3c2F)c1F [Example 84, 6-[3-(5-Chloro-2-methoxypyridine-3-sulfonamido)-2,6-difluorophenyl]-7-fluoro-N-(2-methanesulfonylethyl)-1H-indazole-3-carboxamide]
2500 to 10000	CNC(=O)c1n[nH]c2c(F)c(-c3c(F)ccc(NS(=O)(=O)C4CCCN(C)C4)c3F)ccc12 (stereo not drawn) [Example 77, 6-[2,6-difluoro-3-(1-methylpiperidine-3-sulfonamido)phenyl]-7-fluoro-N-methyl-1H-indazole-3-carboxamide]
< 500	COc1ncc(Cl)cc1S(=O)(=O)Nc1ccc(F)c(-c2ccc3c(C(=O)NC4CCCC4)n[nH]c3c2F)c1F [Example 79, 6-[3-(5-Chloro-2-methoxypyridine-3-sulfonamido)-2,6-difluorophenyl]-N-cyclopentyl-7-fluoro-1H-indazole-3-carboxamide]
